One series has as its system HCT-116 wild-type cells. Briefly: Inhibitory activity on proliferation of HCT-116 wild-type cells (Cell-Titer Glo). Type of series: cell-based. Particulars: 8 d incubation.
The test system of series [1] is LU99 MTAP(-/-)deleted cells. Particulars: 144 h.
Procedure: (§1) Materials and cells: LU99 MTAP deleted cell line was purchased from Kyinno Biotechnology (China); cell culture medium and fetal bovine serum were purchased from Thermo Fisher Scientific (USA); 384-well plates were purchased from PerkinElmer (USA); Cell-Titer Glo kits were purchased from Promega (USA). Cell culture: LU99 MTAP(-/-)deleted cells were cultured with medium containing 10% fetal bovine serum at 37°C in 5% carbon dioxide. Only cells in the logarithmic growth phase could be used for the test.
(§2) Test of inhibitory activity on cell proliferation: The Cell-Titer Glo kit was used to test the proliferation inhibitory activity of the compounds on LU99 MTAP(-/-)deleted cells. The cell concentration was adjusted, rendering that cells were inoculated into a 384-well plate at 40 µL per well and incubated overnight at 37°C and 5% carbon dioxide. […] 40 µL of Cell-Titer Glo reagent was added to test cell viability.
Series [2] has as its system LU99 MTAP overexpressing cells. Briefly: Inhibitory activity on proliferation of LU99 MTAP overexpressing cells (Cell-Titer Glo). Particulars: 6 d incubation. In kind it is cell-based.
Procedure: Materials and cells: LU99 MTAP overexpressing cell line was purchased from Kyinno Biotechnology (China); cell culture medium and fetal bovine serum were purchased from Thermo Fisher Scientific (USA); 384-well plates were purchased from PerkinElmer (USA); Cell-Titer Glo kits were purchased from Promega (USA).
Cell culture: LU99 MTAP overexpressing cells were cultured with medium containing 10% fetal bovine serum at 37°C in 5% carbon dioxide. Only cells in the logarithmic growth phase could be used for the test.
Test of inhibitory activity on cell proliferation: The Cell-Titer Glo kit was used to test the proliferation inhibitory activity of the compounds on LU99 MTAP overexpressing cells. The cell concentration was adjusted, rendering that cells were inoculated into a 384-well plate at 40 µL per well and incubated overnight at 37°C and 5% carbon dioxide. 40 nL of the compound was added to each well to reach a final concentration of 0-10,000 nM (starting concentration 10,000 nM, 2.5-fold dilution, 10 points), and the cell plate with 0.2% DMSO content was incubated at 37°C and 5% carbon dioxide for 6 d. 40 µL of Cell-Titer Glo reagent was added to test cell viability.
The test system of series [3] is HCT-116 MTAP(-/-)deleted cells. Particulars: 192 h.
Procedure: (§3) Only cells in the logarithmic growth phase could be used for the test. […] The cell concentration was adjusted, rendering that cells were inoculated into a 384-well plate at 40 µL per well and incubated overnight at 37°C and 5% carbon dioxide. 40 nL of the compound was added to each well to reach a final concentration of 0-10,000 nM (starting concentration 10,000 nM, 3-fold dilution, 10 points), and the cell plate with 0.1% DMSO content was incubated at 37°C and 5% carbon dioxide for 8 d. 40 µL of Cell-Titer Glo reagent was added to test cell viability.
The subject of series [4] is LU99 MTAP(-/-)deleted cells. Kind of series: Inhibitory activity on proliferation of LU99 MTAP(-/-)deleted cells (Cell-Titer Glo). Particulars: Homo sapiens, Lu-99, 144 h.
Procedure: as §1, §2
Series [5] has as its system HCT-116 MTAP(-/-)deleted cells. Kind of series: Inhibitory activity on proliferation of HCT-116 MTAP(-/-)deleted cells (Cell-Titer Glo). Particulars: Homo sapiens, HCT-116, 192 h.
Procedure: as §3
Series [6] in a line: Pharmacokinetic test in mice. Type of series: in vivo. Particulars: male, mouse, plasma, ICR mice; for bioavailability: read-out: Bioavailability (F). The method, then:
The test compounds are compounds according to examples of the present disclosure
ICR male mice N=3/group; original source: Zhejiang Vital River Laboratory Animal Technology Co., Ltd.
Single oral administration (PO) to ICR mice: The compound was weighed and dissolved with DMSO, a certain volume of polyethylene glycol 400 and water for injection (WFI) were added, and then a small volume of 1 mol/L hydrochloric acid solution was added to adjust to a clear solution. […]
Single intravenous (IV) administration to ICR mice: The compound was weighed and dissolved with DMSO, a certain volume of polyethylene glycol 400 and water for injection (WFI) were added, and then a small volume of 1 mol/L hydrochloric acid solution was added to adjust to a clear solution. The administration via tail vein injection was conducted for a total of 3 mice after fasting overnight at a dose of 3 mg/kg.
Blood was collected from the dorsalis pedis vein at approximately 30 µL/time point, anticoagulated with dipotassium ethylenediaminetetraacetate and kept on ice until plasma was separated by centrifugation (4000 g/min; 5 min; 4°C) within 1 h. The blood sampling time points were 0.0833 (intravenous injection), 0.25, 0.5, 1, 2, 4, 6, 8, and 24 h. The samples were stored in a refrigerator at -20°C.
A total of 30 µL of plasma sample (10 µL sample + 20 µL blank plasma sample) was added with 200 µL ice-cold ACN containing internal standard, vortexed for 30 s, and centrifuged at 4000 g/min for 20 min. A total of 100 µL of the supernatant was transferred to a 96-well plate, 200 µL of ultrapure water was added, vortexed for 30 s, and 5 µL or 10 µL was injected into LC-MS/MS for analysis. Table 2: Pharmacokinetic Data

Setting [7] is: read-out: IC50 (nM) Lu99 MTAP(-/-)Deleted, LU99 MTAP(-/-)deleted cells, 6 d incubation, Cell-Titer Glo.
Where [8] appears, read: read-out: IC50 (nM) HCT-116 MTAP(-/-)deleted.
Where [9] appears, read: read-out: IC50 (nM) HCT-116 MTAP(-/-)deleted, HCT-116 MTAP(-/-)deleted cells, 8 d incubation, Cell-Titer Glo.

Like-named read-outs stand apart in the source and are kept apart here.

Procedure for HCT-116 wild-type cells: Cell culture: HCT-116 wild-type cells were cultured with a RPMI-1640 medium containing 10% fetal bovine serum+1% penicillin-streptomycin at 37°C in 5% carbon dioxide. Only cells in the logarithmic growth phase could be used for the test.
Test of cell proliferation activity: Cell-Titer Glo kit was used to test the proliferation inhibitory activity of the compound on HCT-116 wild-type cells. The cell concentration was adjusted, rendering that cells were inoculated into a 384-well plate at 40 µL per well and incubated overnight at 37°C and 5% carbon dioxide. 40 nL of the compound was added to each well to reach a final concentration of 0-10,000 nM (starting concentration 10,000 nM, 2-fold dilution, 10 points), and the cell plate with 0.1% DMSO content was incubated at 37°C and 5% carbon dioxide for 8 d. 40 µL of Cell-Titer Glo reagent was added to test cell viability.

Regarding `CN(C(=O)c1ccc2nc(N)c3cncn3c2c1)C1COC2(CCC2)c2cc(N3CCOCC3)ncc21` (centres unmarked) [Example 6, 4-Amino-N-methyl-N-(7'-morpholinyl-3',4'-dihydrospiro[cyclobutane-1,1'-pyrano[4,3-c]pyridine]-4'-yl)imidazo[1,5-a]quinoxaline-8-carboxamide], the IC50 worked out at 10000 nM in the series with HCT-116 wild-type cells, 88.5 nM in series [1], 3880 nM in series [2] and 110 nM in series [3].
For `Cc1ncn2c1c(N)nc1cc(F)c(C(=O)N(C)C3COC4(CCOCC4)c4cc(C(F)(F)F)ccc43)cc12` (centres unmarked) [Example 20, 4-Amino-7-fluoro-N,3-dimethyl-N-(7-(trifluoromethyl)-2',3',5',6'-tetrahydrospiro[isochroman-1,4'-pyran]-4-yl)imidazo[1,5-a]quinoxaline-8-carboxamide], the IC50 in the series with HCT-116 wild-type cells (Homo sapiens, HCT-116, 192 h) turned out to be 920 nM; in series [4] (setting [7]), 20.5 nM; in series [2] (Homo sapiens, Lu-99, 144 h), 1070 nM; in series [5] (setting [8]) it was 9.46 nM.
`CN(C(=O)c1ccc2nc(N)c3cncn3c2c1)[C@@H]1COC2(CCC2)c2cc(N3CCNCC3)ncc21` [Example 21, (S)-4-amino-N-methyl-N-(7'-(piperazin-1-yl)-3'-,4'-dihydrospiro[cyclobutane-1,1'-pyrano[4,3-c]pyridine]-4'-yl)imidazo[1,5-a]quinoxaline-8-carboxamide]: the IC50 in the series on HCT-116 wild-type cells (Homo sapiens, HCT-116, 192 h) is > 20000 nM; in series [4] (setting [7]), > 1000 nM; in series [2] (Homo sapiens, Lu-99, 144 h), 12500 nM; in series [5] (setting [9]), > 1000 nM.
Take `CN(C(=O)c1ccc2nc(N)c3cncn3c2c1)C1COC2(CCC3(CC3)CC2)c2cc(C(F)(F)F)ccc21` (centres unmarked) [Example 23]: the IC50 with HCT-116 wild-type cells (Homo sapiens, HCT-116, 192 h) came out at 4520 nM; in series [4] (setting [7]), 66.1 nM; in series [2] (Homo sapiens, Lu-99, 144 h) it was 3970 nM; in series [5] (setting [8]), 51.5 nM.
Regarding `CN(C(=O)c1ccc2nc(N)c3cncn3c2c1)C1COC2(CCC2)c2cc(N3CCOCC3)ncc21` (centres unmarked) [Example 28, 4-Amino-N-methyl-N-(7'-morpholinyl-3',4'-dihydrospiro[cyclobutane-1,1'-pyrano[4,3-c]pyridine]-4'-yl)imidazo[1,5-a]quinoxaline-8-carboxamide], the IC50 in the series with HCT-116 wild-type cells (Homo sapiens, HCT-116, 192 h) is > 10000 nM; in series [4] (setting [7]) it was 88.5 nM; in series [2] (Homo sapiens, Lu-99, 144 h), 3880 nM; in series [5] (setting [9]), 110 nM.
For `CN(C(=O)c1ccc2nc(N)c3cncn3c2c1)[C@@H]1COC2(CCC2)c2cc(N3CC[Si](C)(C)CC3)ncc21` [Example 34], the IC50 in the series on HCT-116 wild-type cells (Homo sapiens, 192 h) was 5250 nM; in series [4] (read-out: IC50 (nM) Lu99 MTAP(-/-)Deleted) it was 41.5 nM; in series [2] (Homo sapiens, Lu-99, 144 h), 1430 nM; in series [5] (setting [8]) it was 40 nM.
For the compound `CN(C(=O)c1ccc2nc(N)c3cncn3c2c1)[C@@H]1COC2(CCC2)c2cc(-n3cc(C(F)(F)F)cn3)ncc21` [Example 45, (S)-4-amino-N-methyl-N-(7'-(4-(trifluoromethyl)-1H-pyrazol-1-yl)-3',4'-dihydrospiro[cyclobutane-1,1'-pyrano[4,3-c]pyridine]-4'-yl)imidazo[1,5-a]quinoxaline-8-carboxamide], the IC50 in the series with HCT-116 wild-type cells (Homo sapiens, HCT-116, 192 h) turned out to be 7050 nM; in series [4] (setting [7]) it was 30.2 nM; in series [2] (Homo sapiens, Lu-99, 144 h) it was 4710 nM; in series [5] (setting [8]) it was 34.1 nM.
Regarding `CN(C(=O)c1ccc2nc(N)c3cncn3c2c1)[C@@H]1COC2(CCC2)c2cc(N3C4COCC3C4)ncc21` [Example 48, N-((4'S)-7'-(3-oxa-6-azabicyclo[3.1.1]heptane-6-yl)-3',4'-dihydrospiro[cyclobutane-1,1'-pyrano[4,3-c]pyridine]-4'-yl)-4-amino-N-methylimidazo[1,5-a]quinoxaline-8-carboxamide], the IC50 in the series with HCT-116 wild-type cells (Homo sapiens, HCT-116, 192 h) was > 20000 nM; in series [4] (setting [7]) it was 150 nM; in series [2] (Homo sapiens, Lu-99, 144 h), 10600 nM; in series [5] (setting [8]) it was 144 nM.
Consider `Cc1ncc2c(N)nc3cc(F)c(C(=O)N(C)C4COC5(CCCOC5)c5cc(C(F)(F)F)ccc54)cc3n12` (centres unmarked) [Example 51, 4-Amino-7-fluoro-N,1-dimethyl-N-(7-(trifluoromethyl)-5',6'-dihydro-2'H,4'H-pyran[isochroman-1,3'-pyran]-4-yl)imidazo[1,5-a]quinoxaline-8-carboxamide], for which the IC50 was 1830 nM in the series on HCT-116 wild-type cells (Homo sapiens, HCT-116, 192 h); 14 nM in series [4] (setting [7]); 1320 nM in series [2] (Homo sapiens, Lu-99, 144 h); 8.02 nM in series [5] (setting [8]).
Take `Cc1ncn2c1c(N)nc1cc(F)c(C(=O)N(C)C3COC4(CCCOC4)c4cc(C(F)(F)F)ccc43)cc12` (centres unmarked) [Example 52, 4-Amino-7-fluoro-N,3-dimethyl-N-(7-(trifluoromethyl)-5',6'-dihydro-2'H,4'H-pyran[isochroman-1,3'-pyran]-4-yl)imidazo[1,5-a]quinoxaline-8-carboxamide]: the IC50 in the series on HCT-116 wild-type cells (Homo sapiens, HCT-116, 192 h) was 602 nM; in series [4] (setting [7]), 14.9 nM; in series [2] (Homo sapiens, Lu-99, 144 h), 539 nM; in series [5] (setting [8]), 8.06 nM.
Consider `CN(C(=O)c1ccc2nc(N)c3cncn3c2c1)[C@H]1COC2(CC2)c2cc(C(F)(F)F)ccc21` [Example 53, (R)-4-amino-N-methyl-N-(7'-(trifluoromethyl)spiro[cyclopropane-1,1'-isochroman]-4'-yl)imidazo[1,5-a]quinoxaline-8-carboxamide], for which the IC50 in the series on HCT-116 wild-type cells (Homo sapiens, HCT-116, 192 h) was determined as 7590 nM; in series [4] (setting [7]), 682 nM; in series [2] (Homo sapiens, Lu-99, 144 h), 1750 nM; in series [5] (setting [8]), 419 nM.
By bioavailability is commonly meant dose-corrected exposure relative to a reference, in per cent. By AUC(0-t) is commonly meant the area under the concentration-time curve up to a stated or last time point. One may read the half-life as how long it takes for the measured level to halve. A higher half-life goes with slow loss. For the compound `CN(C(=O)c1ccc2nc(N)c3cncn3c2c1)[C@@H]1COC2(CC2)c2cc(C(F)(F)F)ccc21` [Example 54, (S)-4-amino-N-methyl-N-(7'-(trifluoromethyl)spiro[cyclopropane-1,1'-isochroman]-4'-yl)imidazo[1,5-a]quinoxaline-8-carboxamide], the bioavailability in series [6] (PO(30mg/kg)) is 86.5%; in series [6] (PO(100mg/kg)), 48.2%. Moreover, the AUC(0-t) in series [6] (IV(3mg/kg)) amounted to 25.4 µg·h/mL; in series [6] (PO(30mg/kg)), 220 µg·h/mL; in series [6] (PO(100mg/kg)) it was 408 µg·h/mL. Further, the half-life in series [6] (IV(3mg/kg)) is 2.37 h; in series [6] (PO(30mg/kg)) it was 1.47 h; in series [6] (PO(100mg/kg)), 2.06 h. In addition, the IC50 is 1040 nM in the series with HCT-116 wild-type cells (Homo sapiens, HCT-116, 192 h); 8.11 nM in series [4] (setting [7]); 1100 nM in series [2] (Homo sapiens, Lu-99, 144 h); 5.8 nM in series [5] (setting [8]).
For the compound `CN(C(=O)c1ccc2nc(N)c3cncn3c2c1)[C@@H]1COC(C)(C)c2cc(N3CCOCC3)ccc21` [Example 98, (S)-4-amine-N-(1,1-dimethyl-7-morpholinoisochroman-4-yl)-N-methylimidazo[1,5-a]quinoxaline-8-carboxamide], the IC50 with HCT-116 wild-type cells (Homo sapiens, HCT-116, 192 h) was > 10000 nM; in series [4] (setting [7]), 57.5 nM; in series [2] (Homo sapiens, Lu-99, 144 h) it was 8100 nM; in series [5] (setting [8]) it was 47.9 nM.
With `CN(C(=O)c1ccc2nc(N)c3cncn3c2c1)[C@@H]1COC2(CCOCC2)c2cc(C(F)(F)F)ccc21` [Example 100, (S)-4-amino-N-methyl-N-(7'-(trifluoromethyl)-2',3',5',6'-tetrahydrospiro[isochroman-1,4'-pyran]-4-yl)imidazo[1,5-a]quinoxaline-8-carboxamide], the IC50 worked out at 902 nM with HCT-116 wild-type cells (Homo sapiens, HCT-116, 192 h); 8.5 nM in series [4] (setting [7]); 938 nM in series [2] (Homo sapiens, Lu-99, 144 h); 5.2 nM in series [5] (setting [8]).
Consider `CN(C(=O)c1ccc2nc(N)c3cncn3c2c1)[C@H]1COC2(CCOCC2)c2cc(C(F)(F)F)ccc21` [Example 101, (R)-4-amino-N-methyl-N-(7'-(trifluoromethyl)-2',3',5',6'-tetrahydrospiro[isochroman-1,4'-pyran]-4-yl)imidazo[1,5-a]quinoxaline-8-carboxamide], for which the IC50 in the series on HCT-116 wild-type cells (Homo sapiens, HCT-116, 192 h) is 9490 nM; in series [4] (setting [7]), > 1000 nM; in series [2] (Homo sapiens, Lu-99, 144 h) it was 5640 nM; in series [5] (setting [8]), 403 nM.

The values are drawn from patent EP4818171A1 (Apeiron Therapeutics (Hong Kong) Ltd., priority 2024, dated 2025).
